Columns and labels:
[1] = tested on: Septoria tritici; test: Microtest: activity against leaf blotch on wheat caused by Septoria tritici (Septtr); type: cell-based; conditions: MTP, 405 nm, 7 days after inoculation
Description: (§1) The active compounds were formulated separately as a stock solution having a concentration of 10000 ppm in dimethyl sulfoxide.
(§2) The stock solutions were mixed according to the ratio, pipetted onto a micro titer plate (MTP) and diluted with water to the stated concentrations. A spore suspension of Septoria tritici in an aqueous biomalt or yeast-bactopeptone-glycerine solution was then added. The plates were placed in a water vapor-saturated chamber at a temperature of 18° C. Using an absorption photometer, the MTPs were measured at 405 nm 7 days after the inoculation.
(§3) The measured parameters were compared to the growth of the active compound-free control variant (100%) and the fungus-free and active compound-free blank value to determine the relative growth in % of the pathogens in the respective active compounds.
(§4) These percentages were converted into efficacies.
(§5) The expected efficacies of active compound mixtures were determined using Colby's formula [R. S. Colby, “Calculating synergistic and antagonistic responses of herbicide combinations”, Weeds 15, 20-22 (1967)] and compared with the observed efficacies.

[2] = tested on: Leptosphaeria nodorum; test: Microtest: activity against wheat leaf spots caused by Leptosphaeria nodorum (Leptno); type: cell-based; conditions: MTP, 405 nm, 7 days after inoculation
Description: as §1
as §2, with “Leptosphaeria nodorum” for “Septoria tritici”
as §3, §4, §5

SMILES	Observed efficacy ([1]; single compound at 0.001 ppm) [%]	Observed efficacy ([2]; single compound at 0.016 ppm) [%]	Observed efficacy ([1]; single compound at 4 ppm) [%]	Observed efficacy ([2]; single compound at 63 ppm) [%]	Observed efficacy ([1]; single compound at 16 ppm) [%]
CC(O)(Cn1cncn1)c1ccc(Oc2ccc(Cl)cc2)cc1C(F)(F)F (stereo not shown) [I-3, 2-[4-(4-chlorophenoxy)-2-(trifluoromethyl)phenyl]-1-(1,2,4-triazol-1-yl)propan-2-ol]	6	23			
CCN(C(=O)c1cnn(C(C)C(C)C)c1C)c1ccnnc1 (stereo not shown) [II-2, 1-(1,2-dimethylpropyl)-N-ethyl-5-methyl-N-pyridazin-4-yl-pyrazole-4-carboxamide]			7	7	
CCN(C(=O)c1cnn(C(C)C2(C#N)CC2)c1C)c1ccnnc1 (stereo not shown) [II-4, 1-[1-(1-cyanocyclopropyl)ethyl]-N-ethyl-5-methyl-N-pyridazin-4-yl-pyrazole-4-carboxamide]				2	
CCN(C(=O)c1cnn(C(C)C(C)F)c1C)c1ccnnc1 (stereo not shown) [II-5, N-ethyl-1-(2-fluoro-1-methyl-propyl)-5-methyl-N-pyridazin-4-yl-pyrazole-4-carboxamide]				12	9

From US20180184654A1, “Pesticidal Compositions Comprising a Triazole Compound” (BASF Agro B.V., priority 2015, published 2018)
